Tested on: 935938-334-R-J1-PDC complex spheroid viability
Test: Anticancer human tumor 935938-334-R-J1-PDC patient-derived small intestine adenocarcinoma cell line growth inhibition [POLQ]
Details: for IC50: curve of first compound; for viability, T/C: stronger effect = lower value
Summary of the method: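 Growth inhibition in 3D: complex spheroids (tumor PDC, HUVEC, MSC) treated with POLQ inhibitor combinations; where Cmax unknown, highest tested concentration 10 microM, except SN-38 at 1 microM.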

[1] = second compound 0.0316 µM, first compound 0.0316 µM
[2] = second compound 0.0316 µM, first compound 0.1 µM
[3] = second compound 0.0316 µM, first compound 0.316 µM
[4] = second compound 0.0316 µM, first compound 1 µM
[5] = second compound 0.0316 µM, first compound 3.16 µM
[6] = second compound 0.0316 µM, first compound 10 µM
[7] = second compound 0.1 µM, first compound 0.0316 µM
[8] = second compound 0.1 µM, first compound 0.1 µM
[9] = second compound 0.1 µM, first compound 0.316 µM
[10] = second compound 0.1 µM, first compound 1 µM
[11] = second compound 0.1 µM, first compound 3.16 µM
[12] = second compound 0.1 µM, first compound 10 µM
[13] = second compound 0.316 µM, first compound 0.0316 µM
[14] = second compound 0.316 µM, first compound 0.1 µM
[15] = second compound 0.316 µM, first compound 0.316 µM
[16] = second compound 0.316 µM, first compound 1 µM
[17] = second compound 0.316 µM, first compound 3.16 µM
[18] = second compound 0.316 µM, first compound 10 µM
[19] = second compound 1 µM, first compound 0.0316 µM
[20] = second compound 1 µM, first compound 0.1 µM
[21] = second compound 1 µM, first compound 0.316 µM
[22] = second compound 1 µM, first compound 1 µM
[23] = second compound 1 µM, first compound 3.16 µM
[24] = second compound 1 µM, first compound 10 µM
[25] = second compound 3.16 µM, first compound 0.0316 µM
[26] = second compound 3.16 µM, first compound 0.1 µM
[27] = second compound 3.16 µM, first compound 0.316 µM
[28] = second compound 3.16 µM, first compound 1 µM
[29] = second compound 3.16 µM, first compound 3.16 µM
[30] = second compound 3.16 µM, first compound 10 µM
[31] = second compound 10 µM, first compound 0.0316 µM
[32] = second compound 10 µM, first compound 0.1 µM
[33] = second compound 10 µM, first compound 0.316 µM
[34] = second compound 10 µM, first compound 1 µM
[35] = second compound 10 µM, first compound 3.16 µM
[36] = second compound 10 µM, first compound 10 µM
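Note: spheroids exposed to drugs for seven days before viability read.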
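Throughout, for viability, T/C: 100% = DMSO vehicle control wells.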

## CCc1cc2c(N3CCc4c(cc(Cn5ccnc5)cc4-c4cn(C)nc4C(F)(F)F)C3=O)cc(C)nc2c(OC)n1 + Cc1cccc(N(C)C(=O)C2C(O)CCN2c2nc(C)cc(C(F)(F)F)c2C#N)c1
Second compound 0.0316 µM
  IC50: > 10 µM
Second compound 0.1 µM
  IC50: > 10 µM
Second compound 0.316 µM
  IC50: > 10 µM
Second compound 1 µM
  IC50: > 10 µM
Second compound 3.16 µM
  IC50: > 10 µM
Second compound 10 µM
  IC50: > 10 µM
[1]
  viability, T/C: 77.4%
[2]
  viability, T/C: 59%
[3]
  viability, T/C: 74%
[4]
  viability, T/C: 58.9%
[5]
  viability, T/C: 69.4%
[6]
  viability, T/C: 56.7%
[7]
  viability, T/C: 61.9%
[8]
  viability, T/C: 87%
[9]
  viability, T/C: 62.8%
[10]
  viability, T/C: 56.1%
[11]
  viability, T/C: 72%
[12]
  viability, T/C: 63%
[13]
  viability, T/C: 74.7%
[14]
  viability, T/C: 62.6%
[15]
  viability, T/C: 62.4%
[16]
  viability, T/C: 54.8%
[17]
  viability, T/C: 65.5%
[18]
  viability, T/C: 51.6%
[19]
  viability, T/C: 91.2%
[20]
  viability, T/C: 61.9%
[21]
  viability, T/C: 55.6%
[22]
  viability, T/C: 60.9%
[23]
  viability, T/C: 51.7%
[24]
  viability, T/C: 53.2%
[25]
  viability, T/C: 78.3%
[26]
  viability, T/C: 78.3%
[27]
  viability, T/C: 71.6%
[28]
  viability, T/C: 70.7%
[29]
  viability, T/C: 57.1%
[30]
  viability, T/C: 54.2%
[31]
  viability, T/C: 72.7%
[32]
  viability, T/C: 65.8%
[33]
  viability, T/C: 58.9%
[34]
  viability, T/C: 49.5%
[35]
  viability, T/C: 60.3%
[36]
  viability, T/C: 50.8%

## CC(=O)O[C@H]1C(=O)[C@@]2(C)[C@H]([C@H](OC(=O)c3ccccc3)[C@]3(O)C[C@H](OC(=O)[C@H](O)[C@@H](NC(=O)c4ccccc4)c4ccccc4)C(C)=C1C3(C)C)[C@]1(OC(C)=O)CO[C@@H]1C[C@@H]2O + COC1C(OC(N)=O)C(O)C(Oc2ccc3c(O)c(NC(=O)c4ccc(O)c(CC=C(C)C)c4)c(=O)oc3c2C)OC1(C)C
Second compound 0.0316 µM
  IC50: < 0.00949 µM
Second compound 0.1 µM
  IC50: < 0.00949 µM
Second compound 0.316 µM
  IC50: < 0.00949 µM
Second compound 1 µM
  IC50: < 0.00949 µM
Second compound 3.16 µM
  IC50: < 0.00949 µM
Second compound 10 µM
  IC50: < 0.00949 µM
Second compound 0.0316 µM, first compound 0.00949 µM
  viability, T/C: 33.5%
Second compound 0.0316 µM, first compound 0.03 µM
  viability, T/C: 21.4%
Second compound 0.0316 µM, first compound 0.0949 µM
  viability, T/C: 14.8%
Second compound 0.0316 µM, first compound 0.3 µM
  viability, T/C: 16.4%
Second compound 0.0316 µM, first compound 0.949 µM
  viability, T/C: 16.6%
Second compound 0.0316 µM, first compound 3 µM
  viability, T/C: 19.3%
Second compound 0.1 µM, first compound 0.00949 µM
  viability, T/C: 35.7%
Second compound 0.1 µM, first compound 0.03 µM
  viability, T/C: 21.5%
Second compound 0.1 µM, first compound 0.0949 µM
  viability, T/C: 16.9%
Second compound 0.1 µM, first compound 0.3 µM
  viability, T/C: 17.5%
Second compound 0.1 µM, first compound 0.949 µM
  viability, T/C: 16.5%
Second compound 0.1 µM, first compound 3 µM
  viability, T/C: 18.1%
Second compound 0.316 µM, first compound 0.00949 µM
  viability, T/C: 37.9%
Second compound 0.316 µM, first compound 0.03 µM
  viability, T/C: 18.4%
Second compound 0.316 µM, first compound 0.0949 µM
  viability, T/C: 16.6%
Second compound 0.316 µM, first compound 0.3 µM
  viability, T/C: 13.8%
Second compound 0.316 µM, first compound 0.949 µM
  viability, T/C: 17.9%
Second compound 0.316 µM, first compound 3 µM
  viability, T/C: 18.2%
Second compound 1 µM, first compound 0.00949 µM
  viability, T/C: 34.6%
Second compound 1 µM, first compound 0.03 µM
  viability, T/C: 19.5%
Second compound 1 µM, first compound 0.0949 µM
  viability, T/C: 17.4%
Second compound 1 µM, first compound 0.3 µM
  viability, T/C: 17.2%
Second compound 1 µM, first compound 0.949 µM
  viability, T/C: 16.2%
Second compound 1 µM, first compound 3 µM
  viability, T/C: 16.6%
Second compound 3.16 µM, first compound 0.00949 µM
  viability, T/C: 32.8%
Second compound 3.16 µM, first compound 0.03 µM
  viability, T/C: 21.3%
Second compound 3.16 µM, first compound 0.0949 µM
  viability, T/C: 14.9%
Second compound 3.16 µM, first compound 0.3 µM
  viability, T/C: 18.2%
Second compound 3.16 µM, first compound 0.949 µM
  viability, T/C: 17.5%
Second compound 3.16 µM, first compound 3 µM
  viability, T/C: 18.4%
Second compound 10 µM, first compound 0.00949 µM
  viability, T/C: 36.6%
Second compound 10 µM, first compound 0.03 µM
  viability, T/C: 19.9%
Second compound 10 µM, first compound 0.0949 µM
  viability, T/C: 14.4%
Second compound 10 µM, first compound 0.3 µM
  viability, T/C: 16.6%
Second compound 10 µM, first compound 0.949 µM
  viability, T/C: 14.6%
Second compound 10 µM, first compound 3 µM
  viability, T/C: 16.4%

## C#Cc1c(F)ccc2cc(O)cc(-c3ncc4c(N5CC6CCC(C5)N6)nc(OCC56CCCN5CC(F)C6)nc4c3F)c12 (stereo not drawn) + Nc1ccc(C#CCN(C(=O)Cc2ncc(C(F)(F)F)cc2C(F)(F)F)c2ccc(F)cc2)nn1
Second compound 0.0316 µM
  IC50: 5.75 µM
Second compound 0.1 µM
  IC50: > 10 µM
Second compound 0.316 µM
  IC50: 2.92 µM
Second compound 1 µM
  IC50: 2.85 µM
Second compound 3.16 µM
  IC50: > 10 µM
Second compound 10 µM
  IC50: 2.94 µM
[1]
  viability, T/C: 97.5%
[2]
  viability, T/C: 104%
[3]
  viability, T/C: 84.6%
[4]
  viability, T/C: 74.1%
[5]
  viability, T/C: 65%
[6]
  viability, T/C: 38.4%
[7]
  viability, T/C: 97.9%
[8]
  viability, T/C: 84.8%
[9]
  viability, T/C: 90.4%
[10]
  viability, T/C: 97.4%
[11]
  viability, T/C: 52.1%
[12]
  viability, T/C: 53.6%
[13]
  viability, T/C: 83.7%
[14]
  viability, T/C: 114%
[15]
  viability, T/C: 92%
[16]
  viability, T/C: 68.2%
[17]
  viability, T/C: 52%
[18]
  viability, T/C: 42.1%
[19]
  viability, T/C: 81.4%
[20]
  viability, T/C: 111%
[21]
  viability, T/C: 92.1%
[22]
  viability, T/C: 73.4%
[23]
  viability, T/C: 48.6%
[24]
  viability, T/C: 41.8%
[25]
  viability, T/C: 105%
[26]
  viability, T/C: 99.6%
[27]
  viability, T/C: 66.9%
[28]
  viability, T/C: 66.4%
[29]
  viability, T/C: 61.1%
[30]
  viability, T/C: 67.2%
[31]
  viability, T/C: 108%
[32]
  viability, T/C: 96.7%
[33]
  viability, T/C: 76.2%
[34]
  viability, T/C: 63.6%
[35]
  viability, T/C: 43%
[36]
  viability, T/C: 48.9%

## CC(C)n1c(=O)n(C)c2cnc3cc(F)c(-c4ccc(OCCCN5CCCCC5)nc4)cc3c21 + Nc1ccc(C#CCN(C(=O)Cc2ncc(C(F)(F)F)cc2C(F)(F)F)c2ccc(F)cc2)nn1
Second compound 0.0316 µM
  IC50: > 10 µM
Second compound 0.1 µM
  IC50: > 10 µM
Second compound 0.316 µM
  IC50: > 10 µM
Second compound 1 µM
  IC50: > 10 µM
Second compound 3.16 µM
  IC50: > 10 µM
Second compound 10 µM
  IC50: > 10 µM
[1]
  viability, T/C: 94.3%
[2]
  viability, T/C: 84.3%
[3]
  viability, T/C: 132%
[4]
  viability, T/C: 82.9%
[5]
  viability, T/C: 90.5%
[6]
  viability, T/C: 79.4%
[7]
  viability, T/C: 100%
[8]
  viability, T/C: 102%
[9]
  viability, T/C: 111%
[10]
  viability, T/C: 84.9%
[11]
  viability, T/C: 117%
[12]
  viability, T/C: 90.6%
[13]
  viability, T/C: 101%
[14]
  viability, T/C: 99.4%
[15]
  viability, T/C: 84.9%
[16]
  viability, T/C: 101%
[17]
  viability, T/C: 113%
[18]
  viability, T/C: 98.4%
[19]
  viability, T/C: 120%
[20]
  viability, T/C: 77.8%
[21]
  viability, T/C: 102%
[22]
  viability, T/C: 113%
[23]
  viability, T/C: 128%
[24]
  viability, T/C: 85.7%
[25]
  viability, T/C: 93.2%
[26]
  viability, T/C: 97.7%
[27]
  viability, T/C: 98.2%
[28]
  viability, T/C: 92.4%
[29]
  viability, T/C: 100%
[30]
  viability, T/C: 94.4%
[31]
  viability, T/C: 107%
[32]
  viability, T/C: 88.8%
[33]
  viability, T/C: 82.9%
[34]
  viability, T/C: 107%
[35]
  viability, T/C: 110%
[36]
  viability, T/C: 109%

— PubChem BioAssay AID1963829 (Molecular Pharmacology Branch, DTP, NCI, 2024)
